These results are taken from US5389687A, “Ring-substituted 2-amino-1,2,3,4-tetra-hydronaphthalenes” (Eli Lilly and Company, priority 1991, dated 1995).

Structures are written as SMILES. Several values for one entry are separate records, joined by “and”; a condition that tells them apart may be missing. Identical values can stand only once. Like-named read-outs stand apart in the source and are kept apart here.

Test [1] relates to conscious spontaneous hypertensive rats (SHR). Briefly: Effect on heart rate after i.v. administration to conscious SHR. It is filed as in vivo. Conditions: i.v., conscious SHR; for ED15: Rattus norvegicus, iv, read-out: Heart Rate ED15. The procedure:
(§1) The compounds of this invention are also effective in reducing blood pressure. The blood pressure lowering effect of the compounds of this invention was determined in conscious spontaneous hypertensive rats (SHR; 325-425 g). The rats were anesthetized with halothane (2% in nitrous oxide and oxygen) and were implanted with femoral arterial and venous catheters. The tips of arterial and venous catheters-were positioned in the abdominal aorta below the renal arteries and lower abdominal vena cava, respectively. The catheters were routed subcutaneously to an exit point at the base of the skull and then through a small leather harness fastened around the forequarters of each animal. The animals were allowed a 3- to 4-day recovery period after surgery. On the day before an experiment, each rat was conditioned to the experimental surroundings for 6 hours. On the day of the experiment, the harness on the back of each animal was connected to a spring tether through which arterial and venous extension tubing was routed. The other end of the tubing was connected to a water tight swivel. This system permitted direct recording of blood pressure in conscious free moving animals. Mean arterial blood pressure was measured via a Statham strain gauge transducer (P23DB, Statham Instruments, Oxnard, Calif.) and recorded on a multichannel oscillograph (Beckman Model R611, Beckman Instruments, Palo Alto, Calif.). A minimum 30-minute equilibration period was observed prior to the experimental protocol during which time the animals preened and blood pressure was quite labile. Afterward, the animals appeared to sleep and pressure was stable. Following a control blood pressure measurement, rats were dosed with the compound or vehicle i.v., and pressure was monitored at various time intervals thereafter.
(§2) ^1 Standard protocol recorded the blood pressure and heart rate
(§3) responses after 0.3, 1.0 and 3.0 mg/kg i.v. Dose response curves were
(§4) plotted using the % change in pressure from pretreatment control values a
(§5) 15 and 30 minutes after treatment.
(§6) Corr = correlation coefficient for the linear relationship between the lo
(§7) dose(s) and % change (y) in pressure. Values of 1.0 = perfect correlation
(§8) Pos = Positive slope of dose response
HR Index = ED15 for Heart Rate divided by ED25 for Blood

Test [2] shares this test system. Description: Effect on blood pressure after i.v. administration to conscious SHR. In kind it is in vivo. Conditions: Rattus norvegicus, iv, i.v., conscious SHR, read-out: Blood Pressure ED25 (i.v. dose required to decrease pressure 25%). As for the experimental part: as §1, §2, §3, §4, §5, §6, §7, §8
ED25 = i.v. dose required to decrease pressure 25%

In a further test the target is T1, 5HT1a receptors (Rattus norvegicus, UniProt P19327).
T1 construct: synaptosomal membranes isolated from cerebral cortex; from tissue; host or cells: rat cerebral cortex, crude synaptosomal membranes (Male Sprague-Dawley rats from Harlan Industries)
T1 sequence (P19327 1-422): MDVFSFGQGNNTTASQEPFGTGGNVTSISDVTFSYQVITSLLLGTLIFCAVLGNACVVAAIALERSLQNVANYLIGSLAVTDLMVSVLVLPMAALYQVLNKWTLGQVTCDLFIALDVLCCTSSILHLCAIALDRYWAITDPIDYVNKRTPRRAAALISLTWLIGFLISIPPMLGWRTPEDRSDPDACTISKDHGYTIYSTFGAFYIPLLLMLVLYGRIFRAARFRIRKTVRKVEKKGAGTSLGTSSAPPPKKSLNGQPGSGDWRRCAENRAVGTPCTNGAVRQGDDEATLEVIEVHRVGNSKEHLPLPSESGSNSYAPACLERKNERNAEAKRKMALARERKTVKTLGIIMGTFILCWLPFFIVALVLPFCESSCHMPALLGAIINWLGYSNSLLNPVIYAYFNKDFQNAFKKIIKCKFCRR
Briefly: Binding at 5HT1a receptors in vitro (inhibition of 3H-8-OH-DPAT binding to synaptosomal membranes from cerebral cortex). Also on record: species or system Male Sprague-Dawley rats. Particulars: 0.4 nM 3H-8-OH-DPAT, 37° C., 10 min, pH 7.4, several values in a cell are separate determinations. The procedure: This general procedure is set forth in Wong et al., J. Neural Transm. 71:207-218 (1988).
Male Sprague-Dawley rats (110-150 g) from Harlan Industries (Cumberland, Ind.) were fed a Purina Chow ad libitum for at least 3 days before being used in the studies. Rats were killed by decapitation. The brains were rapidly removed, and the cerebral cortices were dissected out at 4° C.
Brain tissues were homogenized in 0.32 M sucrose. After centrifugation at 1000×g for 10 min and then at 17000×g for 20 min, a crude synaptosomal fraction was sedimented. The pellet was suspended in 100 vol of 50 mM Tris-HCl, pH 7.4, incubated at 37° C. for 10 min, and centrifuged at 50000×g for 10 min. The process was repeated and the final pellet was suspended in ice-chilled 50 mM Tris-HCl, pH 7.4. By the radio-ligand binding method, sites specifically labeled by tritiated 8-hydroxy-2-dipropylamino-1,2,3,4-tetrahydronaphthalene ([…]) have been identified as 5HT-1a receptors.
Binding of (^3 H-8-OH-DPAT) was performed according to the previously described method [Wong et al., J. Neural Transm. 64:251-269 (1985)]. Briefly, synaptosomal membranes isolated from cerebral cortex were incubated at 37° C. for 10 min. in 2 ml of 50 mM Tris-HCl, pH 7.4; 10 μM pargyline; 0.6 mM ascorbic acid; and 0.4 nM […]. Binding was terminated by filtering samples under reduced pressure through glass fiber (GFB) filters. The filters were washed twice with 5 ml of ice cold buffer and placed in scintillation vials with 10 ml of PCS (Amersham/Searle) scintillation fluid. Radioactivity was measured with a liquid scintillation spectrometer. Unlabeled 8-OH-DPAT at 10 μM was also included in separate samples to establish non-specific binding. Specific binding of ^3 H-8-OH-DPAT is defined as the difference of radioactivity bound in the absence and in the presence of 10 μM unlabeled 8-OH-DPAT.

Where [3] appears, read: 0.25 h, 15 min. after treatment.

Take `CCN(C)C1CCc2cccc(Cl)c2C1` (centres unmarked) [Example 13, 2-Methylethylamino-8-chloro-1,2,3,4-tetrahydronaphthalene]: the “HR Index (ED15 for Heart Rate divided by ED25 for Blood Pressure)” value in test [1] (15 min. after treatment) is recorded as 0.69; in test [1] (30 min. after treatment) it was 0.70. Besides, the ED15 in test [1] (setting [3]) is 0.48 mg/kg; in test [1] (0.5 h, 30 min. after treatment), 0.63 mg/kg. Besides, the ED25 in test [2] (setting [3]) is 0.7 mg/kg; in test [2] (0.5 h, 30 min. after treatment), 0.9 mg/kg. For the same compound, the IC50 (in general, the concentration needed to halve the response being measured) at 5HT1a receptors (read-out: IC50 5HT1a) stood at 120 nM.

With `CCCN(CCC)C1CCc2cccc(C(N)=O)c2C1` (centres unmarked) [Example 16, 2-Di-n-propylamino-8-carboxamido-1,2,3,4-tetrahydronaphthalene], the “HR Index (ED15 for Heart Rate divided by ED25 for Blood Pressure)” value was 0.35 in test [1] (15 min. after treatment) and 0.51 in test [1] (30 min. after treatment). Moreover, the ED15 was found to be 1.5 mg/kg in test [1] (setting [3]) and 2.9 mg/kg in test [1] (0.5 h, 30 min. after treatment). The ED25 in test [2] (setting [3]) turned out to be 4.2 mg/kg; in test [2] (0.5 h, 30 min. after treatment), 5.7 mg/kg. Further, the concentration for half-maximal inhibition (IC50) at 5HT1a receptors (IC50 5HT1a) is 7.1 nM and 9 nM and 6.1 nM and 5.8 nM.
